In patent US9409914B2, “Triazolo[4,5-d]pyrimidine derivatives” (Merck Patent GmbH, priority 2012, dated 2016) one finds IC50 data, which are given here for 26 molecules.

What is called IC50 is the concentration needed to halve the response being measured.

Experiment [1] deals with T1, GCN2 (Homo sapiens, UniProt Q9P2K8). Kind of experiment: GCN2 enzyme assay (TR-FRET Lanthascreen, phosphorylation of GFP-eIF2alpha). It is filed as biochemical. The settings on record: 10 μM ATP, 80 nM GFP-eIF2alpha, 30 nM GCN2, room temperature. The gist of the method:
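Two-step TR-FRET (Lanthascreen) format: GCN2 incubated at room temperature with 10 μM ATP and 80 nM GFP-labelled eIF2alpha, then stopped with EDTA. Phospho-eIF2alpha detected by Tb-labelled antibody, excitation 340 nm; activity taken from the 520/495 nm emission ratio.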
Background: TR-FRET usually uses a lanthanide donor and a delayed reading to cut background.
Target sequence in this assay (Q9P2K8 whole entry, species assumed): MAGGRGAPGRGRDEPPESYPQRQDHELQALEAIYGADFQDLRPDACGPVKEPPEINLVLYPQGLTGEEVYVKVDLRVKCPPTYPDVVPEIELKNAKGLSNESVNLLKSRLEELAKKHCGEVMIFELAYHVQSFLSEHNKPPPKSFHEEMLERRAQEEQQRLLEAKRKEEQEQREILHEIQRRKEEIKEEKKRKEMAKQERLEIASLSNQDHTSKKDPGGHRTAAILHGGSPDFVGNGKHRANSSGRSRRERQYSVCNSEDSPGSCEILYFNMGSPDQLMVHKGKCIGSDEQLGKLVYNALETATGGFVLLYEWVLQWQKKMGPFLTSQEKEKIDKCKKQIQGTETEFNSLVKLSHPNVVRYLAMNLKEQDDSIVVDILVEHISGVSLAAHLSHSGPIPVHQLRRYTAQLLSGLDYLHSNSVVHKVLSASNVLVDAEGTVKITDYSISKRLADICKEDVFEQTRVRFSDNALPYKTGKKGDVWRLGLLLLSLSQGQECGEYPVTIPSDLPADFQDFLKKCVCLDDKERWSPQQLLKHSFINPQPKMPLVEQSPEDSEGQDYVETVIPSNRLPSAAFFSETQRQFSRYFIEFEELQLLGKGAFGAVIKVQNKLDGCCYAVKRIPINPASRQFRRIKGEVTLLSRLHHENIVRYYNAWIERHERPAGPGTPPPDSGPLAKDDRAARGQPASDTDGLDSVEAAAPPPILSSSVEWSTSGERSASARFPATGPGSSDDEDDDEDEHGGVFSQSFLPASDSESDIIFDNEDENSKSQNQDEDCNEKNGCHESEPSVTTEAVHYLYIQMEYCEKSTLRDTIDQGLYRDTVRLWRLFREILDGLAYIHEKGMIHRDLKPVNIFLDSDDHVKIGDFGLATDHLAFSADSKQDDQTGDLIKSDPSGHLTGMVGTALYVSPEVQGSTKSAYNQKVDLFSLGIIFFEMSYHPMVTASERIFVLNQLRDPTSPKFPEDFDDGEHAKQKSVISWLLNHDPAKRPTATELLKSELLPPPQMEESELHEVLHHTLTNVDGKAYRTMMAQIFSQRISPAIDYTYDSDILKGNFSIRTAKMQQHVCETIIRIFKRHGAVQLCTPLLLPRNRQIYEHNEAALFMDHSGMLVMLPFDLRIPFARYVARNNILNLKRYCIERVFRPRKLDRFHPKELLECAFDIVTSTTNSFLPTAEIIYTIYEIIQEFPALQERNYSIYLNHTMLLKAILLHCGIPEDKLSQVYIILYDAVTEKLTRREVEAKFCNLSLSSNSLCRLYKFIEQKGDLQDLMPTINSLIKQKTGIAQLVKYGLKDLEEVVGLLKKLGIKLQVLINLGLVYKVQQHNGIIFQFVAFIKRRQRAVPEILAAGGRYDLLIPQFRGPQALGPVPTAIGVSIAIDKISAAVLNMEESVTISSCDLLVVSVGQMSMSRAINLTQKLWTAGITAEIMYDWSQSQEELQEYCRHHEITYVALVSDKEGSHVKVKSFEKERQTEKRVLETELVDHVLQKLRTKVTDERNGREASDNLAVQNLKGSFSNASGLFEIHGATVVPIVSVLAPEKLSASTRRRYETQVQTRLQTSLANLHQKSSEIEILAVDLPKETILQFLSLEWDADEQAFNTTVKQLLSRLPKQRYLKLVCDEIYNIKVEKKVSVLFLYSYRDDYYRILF

The target in experiment [2] is T1, GCN2. Kind of experiment: Cellular assay for GCN2 activity (phospho-eIF2alpha immunocytochemistry, tryptophanol-stimulated U2OS cells). The class given is cell-based. On the set-up: endogenous in cells; host or cells: U2OS. The settings on record: 2 hours compound, then 600 μM tryptophanol 30 minutes, anti-phospho-eIF2alpha, read-out: IC50 GCN2 (cell assay). How it is done:
Cellular Assay for the Determination of Compound Activities
Human U2OS cells (2000 cells/well) are seeded into 384-well plates and incubated for 20 hours.
The next day, the cells are treated with the test compounds and incubated for 2 hours. Then, tryptophanol, at a final concentration of 600 μM, is added to the cells and those are incubated for 30 minutes.
The analysis of cellular GCN2 activities is done by immunocytochemistry. Briefly, cells are fixated on the well surfaces by formaldehyde and permeabilised with Triton X-100. The primary antibody (anti-phospho-eIF2alpha (Ser51, Cell Signalling Technology, #3398) is incubated on the treated cells for 20 hours, followed by a 60 minutes incubation of the secondary antibody (anti-rabbit-IgG-Alexa 488; Molecular Probes #11008). The analysis and quantification of phosphorylated GCN2 is done by scanning the plates in the Acumen Explorer system (TTPLabtech). The obtained data are normalised against the untreated control wells (DMSO only) and expressed as % effect values. The determination of IC50 values is done by using the Graph Pad Prism software.
Target sequence in this assay (Q9P2K8 whole entry): as the sequence (Q9P2K8 whole entry, species assumed) above

Consider `COc1ccc(-n2nnc3cnc(Nc4cnn(-c5ccccc5)c4)nc32)cc1` [Compound A1, [3-(4-methoxy-phenyl)-3H-[1,2,3]triazolo[4,5-d]pyrimidin-5-yl]-(1-phenyl-1H-pyrazol-4-yl)-amine], for which the IC50 against GCN2 [1] is 300 to 3000 nM; at GCN2 [2], 3000 to 50000 nM.
The like results for `c1ccc(-n2nnc3cnc(Nc4cn[nH]c4)nc32)cc1` [Compound A4, (3-phenyl-3H-[1,2,3]triazolo[4,5-d]pyrimidin-5-yl)-(1H-pyrazol-4-yl)-amine] were, in that order, below 300 nM and 3000 to 50000 nM.
For `COCCOc1ccc(-n2nnc3cnc(Nc4cnn([C@H]5CC[C@H](O)CC5)c4)nc32)cc1` [Compound A108, 4-(4-{3-[4-(2-methoxy-ethoxy)-phenyl]-3H-[1,2,3]triazolo[4,5-d]pyrimidin-5-ylamino}-pyrazol-1-yl)-cyclohexanol], in that order: below 300 nM and 3000 to 50000 nM.
For `Fc1cccc(-n2nnc3cnc(Nc4cnn(CCn5cccn5)c4)nc32)c1` [Compound A126, [3-(3-fluoro-phenyl)-3H-[1,2,3]triazolo[4,5-d]pyrimidin-5-yl]-[1-(2-pyrazol-1-yl-ethyl)-1H-pyrazol-4-yl]-amine], in that order: below 300 nM and 3000 to 50000 nM.
With `c1nn(C2CCOCC2)cc1Nc1ncc2nnn(-c3ccc4cn[nH]c4c3)c2n1` [Compound A92, [3-(1H-indazol-6-yl)-3H-[1,2,3]triazolo[4,5-d]pyrimidin-5-yl]-[1-(tetrahydro-pyran-4-yl)-1H-pyrazol-4-yl]-amine], the concentration for half-maximal inhibition (IC50) against GCN2 [1] and on GCN2 [2] was below 300 nM in each case.
For the molecule `COc1ccc(-n2nnc3cnc(Nc4cnn(C5CCNCC5)c4)nc32)cc1` [Compound A6, [3-(4-methoxy-phenyl)-3H-[1,2,3]triazolo[4,5-d]pyrimidin-5-yl]-(1-piperidin-4-yl-1H-pyrazol-4-yl)-amine], the IC50 at GCN2 [1] is below 300 nM; on GCN2 [2], 300 to 3000 nM.
The like results for `CCn1cc(Nc2ncc3nnn(-c4cccc(C(N)=O)c4)c3n2)cn1` [Compound A68, 3-[5-(1-ethyl-1H-pyrazol-4-ylamino)-[1,2,3]triazolo[4,5-d]pyrimidin-3-yl]-benzamide] were, in that order, 300 to 3000 nM and 3000 to 50000 nM.
Regarding `COCCOc1ccc(-n2nnc3cnc(Nc4cnn(C5CCN(C)CC5)c4)nc32)cc1` [Compound A27, 3-[4-(2-methoxyethoxy)phenyl]-N-[1-(1-methyl-4-piperidyl)pyrazol-4-yl]triazolo[4,5-d]pyrimidin-5-amine], the IC50 was below 300 nM against GCN2 [1] and 300 to 3000 nM at GCN2 [2].
Take `CC(C)(OCCO)c1ccc(-n2nnc3cnc(Nc4cnn(C5CCOCC5)c4)nc32)cc1` [Compound A130, 2-[1-methyl-1-(4-{5-[1-(tetrahydro-pyran-4-yl)-1H-pyrazol-4-ylamino]-[1,2,3]triazolo[4,5-d]pyrimidin-3-yl}-phenyl)-ethoxy]-ethanol]: the IC50 against GCN2 [1] was below 300 nM; at GCN2 [2] it was 300 to 3000 nM.
`CCOc1ccc(-n2nnc3cnc(Nc4cnn(CCOC(C)(C)C)c4)nc32)cc1` [Compound A51, [1-(2-tert-butoxy-ethyl)-1H-pyrazol-4-yl]-[3-(4-ethoxy-phenyl)-3H-[1,2,3]triazolo[4,5-d]pyrimidin-5-yl]-amine]: the half-inhibitory concentration (IC50) against GCN2 [1] was below 300 nM; on GCN2 [2], 300 to 3000 nM.
The like results for `CCn1cc(Nc2ncc3nnn(-c4ccc5c(c4)NC(=O)C5(C)C)c3n2)cn1` [Compound A84, 6-[5-(1-ethyl-1H-pyrazol-4-ylamino)-[1,2,3]triazolo[4,5-d]pyrimidin-3-yl]-3,3-dimethyl-1,3-dihydro-indol-2-one] were, in that order, below 300 nM and 300 to 3000 nM.
For `COCCN1CCC(n2cc(Nc3ncc4nnn(-c5ccc(OC)cc5)c4n3)cn2)CC1` [Compound A26, N-[1-[1-(2-methoxyethyl)-4-piperidyl]pyrazol-4-yl]-3-(4-methoxyphenyl)triazolo[4,5-d]pyrimidin-5-amine], in that order: below 300 nM and 300 to 3000 nM.
For `CCOc1ccc(-n2nnc3cnc(Nc4cnn(CC)c4)nc32)cc1` [Compound A46, [3-(4-ethoxy-phenyl)-3H-[1,2,3]triazolo[4,5-d]pyrimidin-5-yl]-(1-ethyl-1H-pyrazol-4-yl)-amine], in that order: below 300 nM and 300 to 3000 nM.
`COc1ccc(-n2nnc3cnc(Nc4cnn(C5CCN(C)CC5)c4)nc32)nc1` [Compound A77, [3-(5-methoxy-pyridin-2-yl)-3H-[1,2,3]triazolo[4,5-d]pyrimidin-5-yl]-[1-(1-methyl-piperidin-4-yl)-1H-pyrazol-4-yl]-amine]: the IC50 at GCN2 [1] is below 300 nM; on GCN2 [2], 300 to 3000 nM.
The like results for `COc1ccc(-n2nnc3cnc(Nc4cnn(CCn5cccn5)c4)nc32)nc1` [Compound A124, [3-(5-methoxy-pyridin-2-yl)-3H-[1,2,3]triazolo[4,5-d]pyrimidin-5-yl]-[1-(2-pyrazol-1-yl-ethyl)-1H-pyrazol-4-yl]-amine] were, in that order, below 300 nM and 3000 to 50000 nM.
The like results for `CCn1cc(Nc2ncc3nnn(-c4ccc(C(C)(C)OCCO)cc4)c3n2)cn1` [Compound A127, 2-(1-{4-[5-(1-ethyl-1H-pyrazol-4-ylamino)-[1,2,3]triazolo[4,5-d]pyrimidin-3-yl]-phenyl}-1-methyl-ethoxy)-ethanol] were, in that order, below 300 nM and 300 to 3000 nM.
The like results for `CN1CCC(n2cc(Nc3ncc4nnn(-c5ccccc5)c4n3)cn2)CC1` [Compound A11, [1-(1-methyl-piperidin-4-yl)-1H-pyrazol-4-yl]-(3-phenyl-3H-[1,2,3]triazolo[4,5-d]pyrimidin-5-yl)-amine] were, in that order, 300 to 3000 nM and 300 to 3000 nM.
In the case of `COCCOc1ccc(-n2nnc3cnc(Nc4cnn(C)c4)nc32)cc1` [Compound A56, {3-[4-(2-methoxy-ethoxy)-phenyl]-3H-[1,2,3]triazolo[4,5-d]pyrimidin-5-yl}-(1-methyl-1H-pyrazol-4-yl)-amine], the IC50 is below 300 nM at GCN2 [1] and 300 to 3000 nM at GCN2 [2].
For `CN1CCC(n2cc(Nc3ncc4nnn(-c5ccc6[nH]ncc6c5)c4n3)cn2)CC1` [Compound A93, [3-(1H-indazol-5-yl)-3H-[1,2,3]triazolo[4,5-d]pyrimidin-5-yl]-[1-(1-methyl-piperidin-4-yl)-1H-pyrazol-4-yl]-amine], in that order: below 300 nM and 3000 to 50000 nM.
The like results for `CN1CCC(n2cc(Nc3ncc4nnn(-c5ccc6ncccc6c5)c4n3)cn2)CC1` [Compound A75, [1-(1-methyl-piperidin-4-yl)-1H-pyrazol-4-yl]-(3-quinolin-6-yl-3H-[1,2,3]triazolo[4,5-d]pyrimidin-5-yl)-amine] were, in that order, below 300 nM and 300 to 3000 nM.
In the case of `CN1CCC(n2cc(Nc3ncc4nnn(-c5ccc(F)c(Cl)c5)c4n3)cn2)CC1` [Compound A111, [3-(3-chloro-4-fluoro-phenyl)-3H-[1,2,3]triazolo[4,5-d]pyrimidin-5-yl]-[1-(1-methyl-piperidin-4-yl)-1H-pyrazol-4-yl]-amine], the results for the concentration for half-maximal inhibition (IC50) on GCN2 [1] and on GCN2 [2] were 300 to 3000 nM and 3000 to 50000 nM, respectively.
For `CN1CCC(n2cc(Nc3ncc4nnn(-c5cccc(C(N)=O)c5)c4n3)cn2)CC1` [Compound A67, 3-{5-[1-(1-methyl-piperidin-4-yl)-1H-pyrazol-4-ylamino]-[1,2,3]triazolo[4,5-d]pyrimidin-3-yl}-benzamide], in that order: below 300 nM and 3000 to 50000 nM.
The like results for `COc1cc(-n2nnc3cnc(Nc4cnn(C5CCN(C)CC5)c4)nc32)ccn1` [Compound A30, 3-(2-methoxy-4-pyridyl)-N-[1-(1-methyl-4-piperidyl)pyrazol-4-yl]triazolo[4,5-d]pyrimidin-5-amine] were, in that order, below 300 nM and 300 to 3000 nM.
The like results for `COc1ccc(-n2nnc3cnc(Nc4cn[nH]c4)nc32)cc1` [Compound A3, [3-(4-methoxy-phenyl)-3H-[1,2,3]triazolo[4,5-d]pyrimidin-5-yl]-(1H-pyrazol-4-yl)-amine] were, in that order, below 300 nM and 3000 to 50000 nM.
Turning to `COc1ccc(-n2nnc3cnc(Nc4cnn(C5COC5)c4)nc32)cc1` [Compound A23, 3-(4-methoxyphenyl)-N-[1-(oxetan-3-yl)pyrazol-4-yl]triazolo[4,5-d]pyrimidin-5-amine], the half-maximal inhibitory concentration (IC50) is below 300 nM at GCN2 [1] and 300 to 3000 nM on GCN2 [2].
For `CCn1cc(Nc2ncc3nnn(-c4ccc(C(N)=O)cc4)c3n2)cn1` [Compound A70, 4-[5-(1-ethyl-1H-pyrazol-4-ylamino)-[1,2,3]triazolo[4,5-d]pyrimidin-3-yl]-benzamide], in that order: below 300 nM and 3000 to 50000 nM.
